Measured values from PMC8083904 (ACS infectious diseases, 2020).

What was measured:
[1] = target: T1, MEZ (Mtb malic enzyme) (Mycobacterium tuberculosis, UniProt P9WK25)
[2] = target: T1, MEZ (Mtb malic enzyme); settings: read-out: Km or K0.5
[3] = target: T1, MEZ (Mtb malic enzyme); remark: listed apart in the source

T1 sequence (P9WK25 whole entry): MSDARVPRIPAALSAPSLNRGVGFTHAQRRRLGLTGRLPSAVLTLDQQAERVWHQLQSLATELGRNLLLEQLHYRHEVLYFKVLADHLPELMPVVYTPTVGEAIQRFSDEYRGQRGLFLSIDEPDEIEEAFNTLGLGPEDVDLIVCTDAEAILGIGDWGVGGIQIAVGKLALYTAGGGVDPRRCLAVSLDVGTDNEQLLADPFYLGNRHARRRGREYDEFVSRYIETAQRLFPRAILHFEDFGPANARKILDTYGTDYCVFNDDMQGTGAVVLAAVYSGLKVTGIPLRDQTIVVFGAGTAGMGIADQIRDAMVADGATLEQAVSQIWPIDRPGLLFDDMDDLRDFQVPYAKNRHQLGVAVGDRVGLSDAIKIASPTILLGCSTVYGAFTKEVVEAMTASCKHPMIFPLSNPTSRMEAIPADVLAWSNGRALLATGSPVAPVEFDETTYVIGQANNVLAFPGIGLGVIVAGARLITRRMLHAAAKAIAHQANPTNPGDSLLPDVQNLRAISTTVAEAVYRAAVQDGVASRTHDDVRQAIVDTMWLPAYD

| SMILES | % activity of unmodified control (activation) [1] | other results |
| --- | --- | --- |
| O=C(O)/C=C/C(=O)O [fumarate] | 361% |  |
| N[C@@H](CC(=O)O)C(=O)O [aspartate] | aspartate induced a smaller increase in activity, Figure 3A |  |
| O=C(O)CCC(=O)O [succinate] | 290% |  |
| O=C(O)C[C@H](O)C(=O)O [L-malate] |  | Km [2]: 18.7 ± 0.5 mM |
| O=C(O)CC(=O)C(=O)O [oxaloacetate] |  | % activity of control (inhibition) [3]: 61% |
